# Test results taken from patent publication EP0922458A1, “Potentiation of temozolomide by an ATase inhibitor” (CANCER RESEARCH CAMPAIGN TECHNOLOGY LIMITED, priority 1993, dated 1994).
# Where two headings read alike, the source gives them in different places.
# Assays:
# [1] = target: T1, O^6-alkylguanine DNA alkyltransferase (ATase) (Homo sapiens, UniProt P16455); experiment: O^6-alkylguanine DNA alkyltransferase assay of treated cells; format: cell-based; settings: for ATase content after BG: concentrations of BG used; for IC50: three-hour incubation, read-out: concentration causing 50% reduction in ATase content
# T1 construct: endogenous in cells; host or cells: human tumour cell lines U373, MCF-7, LOVO, MAWI (extracts of treated cells)
# T1 sequence (P16455 1-207): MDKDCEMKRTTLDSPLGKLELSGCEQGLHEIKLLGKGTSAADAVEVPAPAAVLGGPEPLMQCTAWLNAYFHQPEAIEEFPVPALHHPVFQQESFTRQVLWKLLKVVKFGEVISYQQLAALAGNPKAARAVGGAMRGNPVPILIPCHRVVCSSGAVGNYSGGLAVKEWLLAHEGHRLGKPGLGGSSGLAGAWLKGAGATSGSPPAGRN
# Experimental: This assay was carried out as described by Lee et al., Cancer Res., 51:619 (1991). Thus, varying amounts of cell extracts are incubated with DNA which contains O^6-methylguanine labelled with [^3H] in the methyl group, at preferably 37°C for 2 hours in a total volume of 300 µl of 1 mg/ml of bovine serum albumin in buffer 1. After incubation, bovine serum albumin (100µl of a 10 mg/ml solution in buffer 1) and perchloric acid (100µl of a 4 M solution) are added in rapid succession. A further 2 ml of 1M perchloric is added and the mixture heated at 75°C for 40 minutes to degrade the DNA to acid soluble material. The protein, which contains the methylated ATase, is then collected by centrifugation, washed with 4ml of 1M perchloric acid before being resuspended in 300 µl of 0.01M sodium hydroxide and dissolved in 3ml of aqueous scintillation fluid (Ecoscint A: National Diagnostics), and counted. The protein content of the cells was determined with a BioRad protein assay kit using bovine serum albumin as a standard. ATase activity is expressed as fmol methyl transferred to protein per mg of total protein in the extract.
# [2] = Stability in tissue culture medium (HPLC analysis); format: physicochemical; settings: 37°C
# [3] = test system: LOVO; experiment: Single dose cytotoxicity (sulphorhodamine protein assay); format: cell-based, human; settings: for IC50: Homo sapiens, LOVO (colo-rectal), 1 hour drug; for Ratio IC50 [-BG]/IC50 [+BG]: LOVO
# Experimental: (§1) Cell lines were routinely grown as monolayers in DMEM supplemented with 10% foetal calf serum, 25mM HEPES, glutamine and penicillin/streptomycin. Cytotoxicity studies were carried out in HEPES-free medium in a 5% CO2 atmosphere. 750-1000 cells/well were plated in 96 well plates and, after overnight incubation, were treated for 2 hours with or without 33 µM BG. Temozolomide or CCNU was then added for 1 hour in the same medium, the final DMSO concentration not exceeding 1%. […] For the repeat temozolomide dozing schedule, cells were given consecutive 24 hour treatments, with fresh medium each day. Assays were carried out at least in duplicate.
# [4] = test system: LS174T; experiment: as above; format: cell-based, human; settings: for IC50: Homo sapiens, LS174T (colo-rectal), 1 hour drug; for Ratio IC50 [-BG]/IC50 [+BG]: LS174T
# Experimental: as §1
# [5] = test system: MAWI; experiment: as above; format: cell-based, human; settings: for IC50: Homo sapiens, MAWI (colo-rectal), 1 hour drug; for Ratio IC50 [-BG]/IC50 [+BG]: MAWI
# Experimental: as §1
# [6] = test system: MCF-7; experiment: as above; format: cell-based, human; settings: for IC50: Homo sapiens, MCF7, MCF-7 (breast), 1 hour drug; for Ratio IC50 [-BG]/IC50 [+BG]: MCF-7
# Experimental: as §1
# [7] = test system: U373; experiment: as above; format: cell-based, human; settings: for IC50: Homo sapiens, U373 MG, U373 (astrocytoma), 1 hour drug; for Ratio IC50 [-BG]/IC50 [+BG]: U373
# Experimental: as §1
# [8] = test system: U87MG; experiment: as above; format: cell-based, human; settings: for IC50: Homo sapiens, U-87 MG, U87MG (astrocytoma), 1 hour drug; for Ratio IC50 [-BG]/IC50 [+BG]: U87MG
# Experimental: as §1
# [9] = test system: ZR-75-1; experiment: as above; format: cell-based, human; settings: for IC50: Homo sapiens, ZR-75-1 (breast), 1 hour drug; for Ratio IC50 [-BG]/IC50 [+BG]: ZR-75-1
# Experimental: as §1
# [10] = test system: human tumour cell lines; experiment: Single dose cytotoxicity, summary over the tumour cell lines; format: cell-based
# Experimental: as §1
# [11] = test system: SF767 cells; settings: WO 91/13898; cited from earlier work
# [12] = test system: control XP cells (pZip); experiment: Cytotoxicity in XP lines (MTT assay); format: cell-based; settings: for IC50: 120 h, XP line with ATase < 2 fmol/mg protein (control pZip; printed on the line 'phAT'), MTT assay, 5 days, without BG; for sensitivity of control XP cells relative to human ATase cDNA-transfected cells: pZip versus phAT XP cells, Table I
# Experimental: (§2) Human ATase cDNA-transfected or control XP cells [Fan et al., Nucleic Acid. Res., 18:5723 (1990)] were grown in MEM and 1000 cells/well were plated. After a 3 hour incubation, temozolomide, freshly diluted into MEM, was added and the plates incubated for 5 days. Survivals were assayed as described by Morten et al., Carcinogenesis, 13:483 (1992). In the BG experiments, 300 cells were plated in triplicate onto 9cm plates and allowed to attach for 5 hours. BG was added (10 µM in MEM) 3 hours prior to the treatment with temozolomide which was freshly diluted into MEM containing 10 µM BG. After 7 days, colonies were strained with Giemsa and counted.
# [13] = test system: human ATase cDNA-transfected XP cells (phAT); experiment: Cytotoxicity in XP lines (MTT assay); format: cell-based; settings: 120 h, XP line with ATase 1240 fmol/mg protein (phAT; printed on an unlabelled line), 5 days, without BG
# Experimental: as §2
# [14] = test system: U373; experiment: Repeated dose temozolomide cytotoxicity; format: cell-based, human; settings: for IC50: Homo sapiens, U373 MG, U373, DAY 4 of repeated daily 24 hour doses
# Experimental: as §1
# [15] = test system: MAWI; experiment: Repeated dose temozolomide cytotoxicity; format: cell-based; settings: Homo sapiens
# Experimental: as §1
# [16] = test system: MCF-7; experiment: Repeated dose temozolomide cytotoxicity; format: cell-based; settings: Homo sapiens
# Experimental: as §1
# [17] = test system: control XP cells; experiment: Colony forming assay with BG pretreatment; format: cell-based; settings: 10 µM BG 3 hours before, colonies after 7 days
# Experimental: as §2
# [18] = test system: MAWI; experiment: Cellular uptake of [^14C]-labelled temozolomide; format: in vitro ADME, human; settings: 4°C, 200 µM labelled drug
# Experimental: (§3) 8-carbamoyl-3-[^14C]methylimidazo[5,1-d]-1,2,3,5-tetrazin-4-(3H)-one (specific activity 26.3mCi/mmole) was kindly supplied by Dr. John Slack (Aston Molecules Ltd, Birmingham, UK). Cell suspensions (5 x 10^6/ml) were equilibrated at 4°C and treated with 200 µM of the labelled drug. 10^6 cells were pipetted into eppendorf tubes and centrifuged through 250µl of an oil mixture (4:1 "Three-in-One"/Dow Corning silicone oil). The aqueous layer was aspirated and the oil layer gently washed with a further 300 µl of saline. After centrifugation both layers were aspirated, the cell pellet dissolved in a tissue solubilizer such as Protosol® (quaternary ammonium hydroxide in toluene) and added to scintillation vials containing Optiphase® (95-99% diisopropylnaphthalene).
# [19] = test system: ZR-75-1; experiment: Cellular uptake of [^14C]-labelled temozolomide; format: in vitro ADME, human; settings: 4°C, 200 µM labelled drug
# Experimental: as §3
smiles,measurement,setting,value
"Nc1nc(OCc2ccccc2)c2[nH]cnc2n1 [BG, O^6-benzylguanine]",ATase content after BG,[1]; MAWI cells,undetectable level
same,ATase content after BG,[1]; human ATase cDNA transfected XP fibroblasts,undetectable level
same,stable in tissue culture medium,[2],at least 24 hours
"O=NN(CCCl)C(=O)NC1CCCCC1 [CCNU, lomustine]",IC50,[3]; 2 hours 33 µM BG before,32 µM
same,IC50,[3]; without BG,92 µM
same,Ratio IC50 [-BG]/IC50 [+BG],[3],2.9
same,IC50,[4]; 2 hours 33 µM BG before,13 µM
same,IC50,[4]; without BG,73 µM
same,Ratio IC50 [-BG]/IC50 [+BG],[4],5.7
same,IC50,[5]; 2 hours 33 µM BG before,30 µM
same,IC50,[5]; without BG,133 µM
same,Ratio IC50 [-BG]/IC50 [+BG],[5],4.4
same,IC50,[6]; 2 hours 33 µM BG before,31 µM
same,IC50,[6]; without BG,70 µM
same,Ratio IC50 [-BG]/IC50 [+BG],[6],2.2
same,IC50,[7]; 2 hours 33 µM BG before,12 µM
same,IC50,[7]; without BG,15 µM
same,Ratio IC50 [-BG]/IC50 [+BG],[7],1.2
same,IC50,[8]; 2 hours 33 µM BG before,8.8 µM
same,IC50,[8]; without BG,28 µM
same,Ratio IC50 [-BG]/IC50 [+BG],[8],3.2
same,IC50,[9]; 2 hours 33 µM BG before,25 µM
same,IC50,[9]; without BG,12 µM
same,Ratio IC50 [-BG]/IC50 [+BG],[9],0.5
same,increase in toxicity (sensitivity) after pretreatment with a single non-toxic dose of BG,"[10]; single dose, over the tumour cell lines",≤ 6 fold
same,toxicity on a molar basis relative to temozolomide,"[10]; slopes of IC50 versus ATase content, Figure 1",approximately five
CC1CCC(NC(=O)N(CCCl)N=O)CC1 (stereo not drawn) [Me CCNU],decrease in the ED50 when combined with O^6-benzylguanine,[11],3.8 fold
"NC(=O)c1ncn2c(=O)n(CCCl)nnc12 [mitozolomide, 8-carbamoyl-3-(2-chloroethyl)imidazo[5,1-d]-1,2,3,5-tetrazin-4-(3H)-one]",IC50,[12],0.8 µM
same,sensitivity of control XP cells relative to human ATase cDNA-transfected cells,[12],4-5 fold
same,IC50,[13],4.2 µM
"Cn1nnc2c(C(N)=O)ncn2c1=O [temozolomide, 8-carbamoyl-3-methylimidazo[5,1-d]-1,2,3,5,-tetrazin-4-(3H)-one]",IC50,[3]; 2 hours 33 µM BG before,323 µM
same,IC50,[3]; without BG,848 µM
same,Ratio IC50 [-BG]/IC50 [+BG],[3],2.6
same,IC50,[4]; 2 hours 33 µM BG before,632 µM
same,IC50,[4]; without BG,873 µM
same,Ratio IC50 [-BG]/IC50 [+BG],[4],1.4
same,IC50,[5]; 2 hours 33 µM BG before,335 µM
same,IC50,[5]; without BG,1170 µM
same,Ratio IC50 [-BG]/IC50 [+BG],[5],3.5
same,IC50,[6]; 2 hours 33 µM BG before,171 µM
same,IC50,[6]; without BG,325 µM
same,Ratio IC50 [-BG]/IC50 [+BG],[6],1.9
same,IC50,[7]; 2 hours 33 µM BG before,78 µM
same,IC50,[7]; without BG,131 µM
same,Ratio IC50 [-BG]/IC50 [+BG],[7],1.7
same,IC50,[8]; 2 hours 33 µM BG before,131 µM
same,IC50,[8]; without BG,172 µM
same,Ratio IC50 [-BG]/IC50 [+BG],[8],1.3
same,IC50,[9]; 2 hours 33 µM BG before,23 µM
same,IC50,[9]; without BG,32 µM
same,Ratio IC50 [-BG]/IC50 [+BG],[9],1.4
same,IC50,[12],23 µM
same,sensitivity of control XP cells relative to human ATase cDNA-transfected cells,[12],4-5 fold
same,IC50,[13],100 µM
same,IC50,[14]; with BG,18 µM
same,IC50,[14]; without BG,51 µM
same,potentiation of temozolomide toxicity by BG,"[14]; U373 cells, four 24 hour doses, BG present",3 fold
same,IC50,"[15]; 24 h, DAY 1, with BG",196 µM
same,IC50,"[15]; 24 h, DAY 1, without BG",319 µM
same,IC50,"[15]; 48 h, DAY 2, with BG",59 µM
same,IC50,"[15]; 48 h, DAY 2, without BG",350 µM
same,IC50,"[15]; 72 h, DAY 3, with BG",21 µM
same,IC50,"[15]; 72 h, DAY 3, without BG",383 µM
same,IC50,"[15]; 96 h, DAY 4, with BG",7.2 µM
same,IC50,"[15]; 96 h, DAY 4, without BG",383 µM
same,IC50,"[15]; 120 h, DAY 5, with BG",1 µM
same,IC50,"[15]; 120 h, DAY 5, without BG",326 µM
same,IC50,"[16]; MCF7, 24 h, DAY 1, with BG",89 µM
same,IC50,"[16]; MCF7, 24 h, DAY 1, without BG",319 µM
same,IC50,"[16]; MCF7, 48 h, DAY 2, with BG",51 µM
same,IC50,"[16]; MCF7, 48 h, DAY 2, without BG",319 µM
same,IC50,"[16]; MCF7, 72 h, DAY 3, with BG",11 µM
same,IC50,"[16]; MCF7, 72 h, DAY 3, without BG",375 µM
same,effect of BG pretreatment on cytotoxicity of temozolomide,[17],no measurable effect
same,IC50,[1]; LOVO,50 to 100 µM
same,IC50,[1]; MAWI,50 to 100 µM
same,IC50,[1]; MCF-7,50 to 100 µM
same,IC50,[1]; U373,50 to 100 µM
same,time to complete uptake,[18],≤ 5 min
same,time to complete uptake,[19],≤ 5 min
same,difference in the single dose cytotoxicity between MCF-7 and the colorectal lines (LOVO and MAWI),[10]; single dose,3-4 fold
